Measurements as given in PubChem BioAssay AID328 (DTP/NCI, 2004).
Values joined by “and” are separate entries in the source; they are usually repeats but may differ in a detail not shown here. Equal values may be shown once. Inconclusive results and toxic doses are left out.

System: BDF1 mice, P388 leukemia ip, median survival T/C
Experiment: NCI In Vivo Anticancer Drug Screen. Data for tumor model P388 Leukemia (intraperitoneal) in B6D2F1 (BDF1) mice
Conditions: endpoint: median survival time, higher = longer survival
Method in brief: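 Each value expresses how treatment altered survival: treated-mouse outcome over vehicle-mouse outcome, both groups bearing the transplanted tumour.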

[1] = dose: 50.0 mg/kg/injection, schedule: Q01DX009 (ip), vehicle: saline with Tween-80
[2] = dose: 100.0 mg/kg/injection, schedule: Q01DX009 (ip), vehicle: saline with Tween-80
[3] = dose: 200.0 mg/kg/injection, schedule: Q01DX009 (ip), vehicle: saline with Tween-80
[4] = dose: 6.25 mg/kg/injection, schedule: Q01DX009 (ip), vehicle: saline with Tween-80
[5] = dose: 25.0 mg/kg/injection, schedule: Q04DX003 (ip), vehicle: saline with Tween-80
[6] = dose: 100.0 mg/kg/injection, schedule: Q04DX003 (ip), vehicle: saline with Tween-80
[7] = dose: 200.0 mg/kg/injection, schedule: Q04DX003 (ip), vehicle: saline with Tween-80
[8] = dose: 50.0 mg/kg/injection, schedule: Q04DX003 (ip), vehicle: saline with Tween-80

In the case of `NC(=O)N(CCCl)N=O`, the T/C (dose: 0.25 mg/kg/injection, schedule: Q01DX010 (ip), vehicle: saline) is reported as 190 % of control, the T/C (dose: 0.5 mg/kg/injection, schedule: Q01DX010 (ip), vehicle: saline) is reported as 209 % of control and 213 % of control and the T/C (dose: 1.0 mg/kg/injection, schedule: Q01DX010 (ip), vehicle: saline) is reported as 290 % of control and 300 % of control. The T/C (dose: 1.25 mg/kg/injection, schedule: Q01DX010 (ip), vehicle: saline) was 272 % of control and 168 % of control, the T/C (dose: 2.0 mg/kg/injection, schedule: Q01DX010 (ip), vehicle: saline) was 277 % of control and the T/C (dose: 2.5 mg/kg/injection, schedule: Q01DX010 (ip), vehicle: saline) was 118 % of control and 209 % of control. The T/C (dose: 4.0 mg/kg/injection, schedule: Q01DX010 (ip), vehicle: saline) was 90 % of control.

`O=C(OC(c1ccccc1)(C(F)(F)F)C(F)(F)F)c1cccc(Cl)c1` was tested, and the T/C [1] was 104 % of control, the T/C [2] was 109 % of control and the T/C [3] was 118 % of control.

In the case of `N=C(N)SCc1ccccc1`, the T/C (dose: 50.0 mg/kg/injection, schedule: Q01DX001 (ip), vehicle: saline) is reported as 98 % of control.

In the case of `C=CCNC(=S)Nc1cc(Cl)ccc1C`, the T/C (dose: 50.0 mg/kg/injection, schedule: Q04DX003 (ip), vehicle: Klucel (hydroxypropylcellulose) (HPC)) is reported as 95 % of control, the T/C (dose: 100.0 mg/kg/injection, schedule: Q04DX003 (ip), vehicle: Klucel (hydroxypropylcellulose) (HPC)) is reported as 100 % of control and the T/C (dose: 200.0 mg/kg/injection, schedule: Q04DX003 (ip), vehicle: Klucel (hydroxypropylcellulose) (HPC)) is reported as 109 % of control.

In the case of `O=C(O)Cn1c(C(F)(F)F)nc2nc(Cl)c(Cl)nc21`, the T/C [2] is reported as 90 % of control, the T/C [3] is reported as 90 % of control and the T/C (dose: 400.0 mg/kg/injection, schedule: Q01DX009 (ip), vehicle: saline with Tween-80) is reported as 100 % of control.

With `CCOCCOC(=O)Nc1ccc(C)c(NC(=O)OCCOCC)c1` the T/C [1] was 93 % of control, the T/C [2] was 90 % of control and the T/C [3] was 100 % of control.

`O=C(Nc1nc(Cl)nc(Cl)n1)N1CCOCC1` was tested, and the T/C [4] was 104 % of control, the T/C (dose: 9.0 mg/kg/injection, schedule: Q01DX009 (ip), vehicle: saline with Tween-80) was 103 % of control and the T/C (dose: 12.0 mg/kg/injection, schedule: Q01DX009 (ip), vehicle: saline with Tween-80) was 112 % of control. The T/C (dose: 12.5 mg/kg/injection, schedule: Q04DX003 (ip), vehicle: saline with Tween-80) was 118 % of control, the T/C (dose: 18.0 mg/kg/injection, schedule: Q01DX009 (ip), vehicle: saline with Tween-80) was 112 % of control and the T/C [5] was 109 % of control.

`Nc1cc[c]([Hg][Cl])cc1` was tested, and the T/C (dose: 1.5 mg/kg/injection, schedule: Q01DX001 (ip), vehicle: Klucel (hydroxypropylcellulose) (HPC)) was 110 % of control, the T/C (dose: 3.0 mg/kg/injection, schedule: Q01DX001 (ip), vehicle: Klucel (hydroxypropylcellulose) (HPC)) was 115 % of control and the T/C (dose: 6.0 mg/kg/injection, schedule: Q01DX001 (ip), vehicle: Klucel (hydroxypropylcellulose) (HPC)) was 100 % of control and 104 % of control.

For `O=c1[nH]c(=O)c2nccnc2[nH]1`, the T/C (dose: 12.5 mg/kg/injection, schedule: Q01DX009 (ip), vehicle: water) was 86 % of control, the T/C (dose: 12.5 mg/kg/injection, schedule: Q04DX003 (ip), vehicle: water) was 266 % of control and 120 % of control and the T/C (dose: 25.0 mg/kg/injection, schedule: Q01DX009 (ip), vehicle: water) was 111 % of control. The T/C (dose: 25.0 mg/kg/injection, schedule: Q04DX003 (ip), vehicle: water) was 270 % of control and 113 % of control, the T/C (dose: 50.0 mg/kg/injection, schedule: Q01DX009 (ip), vehicle: water) was 92 % of control and the T/C (dose: 50.0 mg/kg/injection, schedule: Q04DX003 (ip), vehicle: water) was 266 % of control and 111 % of control. For the same compound, the T/C (dose: 100.0 mg/kg/injection, schedule: Q01DX009 (ip), vehicle: water) was 104 % of control, the T/C (dose: 100.0 mg/kg/injection, schedule: Q04DX003 (ip), vehicle: water) was 268 % of control and 102 % of control and the T/C (dose: 200.0 mg/kg/injection, schedule: Q04DX003 (ip), vehicle: water) was 95 % of control.

In the case of `CCc1ccc(NC(=O)c2ccccc2Cl)cc1`, the T/C [6] is reported as 100 % of control, the T/C [7] is reported as 91 % of control and the T/C (dose: 400.0 mg/kg/injection, schedule: Q04DX003 (ip), vehicle: saline with Tween-80) is reported as 91 % of control.

In the case of `O=C1OC(O)(c2ccccc2)C(c2ccccc2)=C1c1ccccc1` (centres undefined), the T/C [1] is reported as 119 % of control, the T/C [2] is reported as 110 % of control and the T/C [3] is reported as 108 % of control.

For `CNC(=O)C(C)C1C(=O)/C(=C(O)/C=C/C(C)=C\C(C)C2OC3(C)OC(C=CC34CO4)C2C)C(=O)N1C1CCC(O)C(C)O1` (centres undefined), the T/C (dose: 50.0 mg/kg/injection, schedule: Q01DX009 (ip), vehicle: saline) was 100 % of control and the T/C (dose: 200.0 mg/kg/injection, schedule: Q01DX009 (ip), vehicle: Klucel (hydroxypropylcellulose) (HPC)) was 109 % of control.

For `CC(C)(C)OC(=O)N/N=C1\CC2CCC1C2` (centres undefined), the T/C [4] was 96 % of control, the T/C (dose: 12.5 mg/kg/injection, schedule: Q01DX009 (ip), vehicle: saline with Tween-80) was 96 % of control and the T/C (dose: 13.75 mg/kg/injection, schedule: Q04DX003 (ip), vehicle: Klucel (hydroxypropylcellulose) (HPC)) was 95 % of control. The T/C (dose: 25.0 mg/kg/injection, schedule: Q01DX009 (ip), vehicle: saline with Tween-80) was 100 % of control, the T/C (dose: 27.5 mg/kg/injection, schedule: Q04DX003 (ip), vehicle: Klucel (hydroxypropylcellulose) (HPC)) was 100 % of control and the T/C (dose: 35.0 mg/kg/injection, schedule: Q01DX009 (ip), vehicle: Klucel (hydroxypropylcellulose) (HPC)) was 105 % of control. The T/C (dose: 55.0 mg/kg/injection, schedule: Q01DX009 (ip), vehicle: Klucel (hydroxypropylcellulose) (HPC)) was 100 % of control, the T/C (dose: 55.0 mg/kg/injection, schedule: Q04DX003 (ip), vehicle: Klucel (hydroxypropylcellulose) (HPC)) was 100 % of control and the T/C (dose: 80.0 mg/kg/injection, schedule: Q04DX003 (ip), vehicle: Klucel (hydroxypropylcellulose) (HPC)) was 105 % of control. For the same compound, the T/C (dose: 125.0 mg/kg/injection, schedule: Q04DX003 (ip), vehicle: Klucel (hydroxypropylcellulose) (HPC)) was 110 % of control.

For `Cn1ncc2c(N)ncnc21`, the T/C (dose: 0.75 mg/kg/injection, schedule: Q01DX009 (ip), vehicle: Klucel (hydroxypropylcellulose) (HPC)) was 100 % of control, the T/C (dose: 1.5 mg/kg/injection, schedule: Q01DX009 (ip), vehicle: Klucel (hydroxypropylcellulose) (HPC)) was 100 % of control and the T/C (dose: 3.0 mg/kg/injection, schedule: Q01DX009 (ip), vehicle: Klucel (hydroxypropylcellulose) (HPC)) was 109 % of control. The T/C (dose: 6.0 mg/kg/injection, schedule: Q01DX009 (ip), vehicle: Klucel (hydroxypropylcellulose) (HPC)) was 122 % of control.

With `O=P(N1CCOCC1)(N1CC1)N1CC1` the T/C (dose: 12.5 mg/kg/injection, schedule: Q01DX009 (ip), vehicle: saline) was 251 % of control and 290 % of control and the T/C (dose: 25.0 mg/kg/injection, schedule: Q01DX009 (ip), vehicle: saline) was 90 % of control.

For `CCCCCCCCCCCC1=NC(CO)(CO)CO1`, the T/C (dose: 100.0 mg/kg/injection, schedule: Q01DX001 (ip), vehicle: saline with Tween-80) was 100 % of control, the T/C (dose: 200.0 mg/kg/injection, schedule: Q01DX001 (ip), vehicle: saline with Tween-80) was 104 % of control and the T/C (dose: 400.0 mg/kg/injection, schedule: Q01DX001 (ip), vehicle: saline with Tween-80) was 100 % of control.

In the case of `O=[N+]([O-])c1ccc(C(O)Nc2nccs2)o1` (centres undefined), the T/C [5] is reported as 95 % of control, the T/C [8] is reported as 100 % of control and 104 % of control and the T/C [6] is reported as 100 % of control.

With `C=Cn1ccnc1C.C=Cn1ccnc1C.CC(=O)CC(C)=O.CC(=O)CC(C)=O.[Ni]` the T/C (dose: 12.5 mg/kg/injection, schedule: Q04DX002 (ip), vehicle: saline) was 119 % of control, the T/C (dose: 25.0 mg/kg/injection, schedule: Q04DX002 (ip), vehicle: saline) was 117 % of control and the T/C (dose: 50.0 mg/kg/injection, schedule: Q04DX002 (ip), vehicle: saline) was 112 % of control.

In the case of `Cc1ccc(NC(=O)C2CCC(C)(C(=O)O)C2(C)C)cc1` (centres undefined), the T/C [8] is reported as 109 % of control, the T/C [6] is reported as 90 % of control and the T/C [7] is reported as 104 % of control.

In the case of `Cc1ccccc1Nc1n[nH]c(=S)s1`, the T/C [1] is reported as 95 % of control, the T/C [2] is reported as 95 % of control and the T/C [3] is reported as 104 % of control.

For `Nc1nc(N)c2cc(Sc3ccc4ccccc4c3)ccc2n1`, the T/C [1] was 113 % of control and the T/C [2] was 123 % of control.
